Reference: patent publication US9834525B2, “Inhibitors of paxillin function and related compositions and methods” (UNIVERSITY OF TENNESSEE RESEARCH FOUNDATION, priority 2015, dated 2017)
Entries after “also recorded” stand apart in the source; their conditions may differ.

How the values were obtained:
[1] = tested on: AKT in OMM 2.5 cells; assay: Western blot of pAKT/AKT in HGF-stimulated metastatic UM cells; assay type: cell-based, human; details: HGF-stimulated OMM 2.5 cells, harvest after 4 hrs
Procedure: (§1) REC, Mel 270, OMM 2.5 under Hepatocyte Growth Factor (HGF) or Vascular Endothelial Growth Factor (VEGF) stimulation conditions: Cell lysates were collected in RIPA lysis buffer (50 mM Tris-HCl, pH 7.4, 150 mM NaCl, 2 mM EDTA, 1% Nonidet P-40, 0.1% SDS) with protease 1× inhibitor cocktail (Roche; Indianapolis, Ind.). Lysates were kept on ice and centrifuged at 10,000×g×10 minutes and total protein was measured using the BCA assay (Pierce, Rockford, Ill.). Protein samples were mixed with 4×LDS loading buffer with 2.5% 2-mercaptoethanol (Sigma-Aldrich), heated to 70° C. for 10 minutes, and loaded on NuPAGE 4-12% Bis-Tris gel (Invitrogen, Carlsbad, Calif.). Immunoblotting was performed with nitrocellulose membranes (Bio-Rad, Hercules, Calif.) at 170-mA start and 110-mA end at 25 V for two hours in NuPAGE transfer buffer (Invitrogen) containing 20% methanol. […] Dual-channel infrared scan and quantitation of immunoblots were conducted using the ODYSSEY Sa infrared imaging system with Image Studio (Ver. 3.1.4) (LI-COR).
FIG. 16: Paxillin inhibition reduced pAKT signaling in metastatic UM cells. A, Representative Western Blot of total and phosphorylated paxillin in metastatic UM cells, as in FIG. 4A-B. B, Quantitation from n=3. […] Lysates were measured by Western Blot. […]

[2] = tested on: AKT (Ser473); assay: Western blot of VEGF-induced AKT phosphorylation in REC; assay type: cell-based, human; details: REC under VEGF; compound (II-4) 500 nM, SU6656 1 μM
Procedure: as §1, with “methanol. Membranes were blocked using Odyssey blocking buffer (LI-COR; Lincoln, Nebr.) for one hour at room temperature with gentle shaking Membranes were then incubated at 4° C. with specific primary antibodies (1:1000) overnight. Cellular protein was normalized using rabbit-GAPDH or mouse-α-Tubulin [1:20,000] (Cell Signaling, Danvers, Mass.; LI-COR, respectively).” for “methanol.”, “(LI-COR). […]” for “(LI-COR).”

COc1cc(C2OC(=O)Nc3c2ccc2ccccc32)cc(OC)c1OC (centres unmarked) [compound II-4] was tested, and the pAKT/AKT [1] was “significant reduction” and the “VEGF-induced activation of AKT (P-AKT Ser473)” value [2] was “able to prevent; also recorded: reduced”.
